Our source for the glass transition temperature values is the PolyMetriX glass transition set.

SMILES strings stand for the structures.

With `*C(=O)Nc1ccc(Oc2ccc(-c3ccc(Oc4ccc(NC(=O)c5ccc6c(c5)C(=O)N(c5ccc(Oc7ccc(C(C)(C)c8ccc(Oc9ccc(N%10C(=O)c%11ccc(*)cc%11C%10=O)cc9)cc8)cc7)cc5)C6=O)cc4)cc3)cc2)cc1` (repeat unit), the glass transition temperature was determined as 283.00 °C.

`*C(=O)Nc1ccc(Oc2ccc(C(C)(C)c3ccc(Oc4ccc(NC(=O)c5ccc6c(c5)C(=O)N(c5ccc(Oc7cccc(N8C(=O)c9ccc(*)cc9C8=O)c7)cc5)C6=O)cc4)cc3)cc2)cc1` (repeat unit) displayed a glass transition temperature of 207.00 °C.

Turning to `*C(=O)Nc1ccc(Oc2ccccc2-c2ccccc2Oc2ccc(NC(=O)c3ccc4c(c3)C(=O)N(c3ccc(Oc5ccc(C(C)(C)c6ccc(Oc7ccc(N8C(=O)c9ccc(*)cc9C8=O)cc7)cc6)cc5)cc3)C4=O)cc2)cc1` (repeat unit), the glass transition temperature stood at 229.00 °C.

Turning to `*C(=O)c1ccc2c(c1)C(=O)N(c1ccc(C(=O)c3cccc(C(=O)c4ccc(N5C(=O)c6ccc(*)cc6C5=O)cc4)c3)cc1)C2=O` (repeat unit), the glass transition temperature came to 276.00 °C.

Regarding `*CCCCCCN1C(=O)C(=O)N(c2ccc(Oc3ccc(N4C(=O)C(=O)N(*)C4=O)cc3)cc2)C1=O` (repeat unit), the glass transition temperature worked out at 172.00 °C.

Regarding `*Cc1cccc(CNC(=O)/C=C(\C)C(=O)N*)c1` (repeat unit), the glass transition temperature was 135.00 °C.

Molecule `*Oc1ccc(C(=O)c2cccc(-c3cccc(C(=O)c4ccc(*)cc4)c3)c2)cc1` (repeat unit) yielded a glass transition temperature of 123.00 °C.

`*Oc1ccc(N(c2ccc(OC)cc2)c2ccc3ccc(N(c4ccc(*)cc4)c4ccc(OC)cc4)cc3c2)cc1` (repeat unit) registered a glass transition temperature of 197.00 °C.

Molecule `*Oc1ccc(N(c2ccc(OCCCCCC)cc2)c2ccc(-c3ccc(N(c4ccc(*)cc4)c4ccc(OCCCCCC)cc4)cc3)cc2)cc1` (repeat unit) displayed a glass transition temperature of 105.00 °C.

As to `*Oc1ccc(NC(=O)c2ccc(Oc3ccc(C(C)(C)c4cccc(C(C)(C)c5ccc(Oc6ccc(C(=O)Nc7ccc(Oc8ccc(C(C)(C)c9ccc(*)cc9)cc8)cc7)cc6)cc5)c4)cc3)cc2)cc1` (repeat unit), the glass transition temperature worked out at 147.00 °C.

Turning to `*Oc1ccc(Oc2ccc(C(=O)c3cccc(-c4cccc(C(=O)c5ccc(*)cc5)c4)c3)cc2)cc1` (repeat unit), the glass transition temperature stood at 154.00 °C.

For the molecule `*Oc1ccc(Oc2ccc(Oc3ccc(C(C)(C)c4ccc(*)cc4)cc3)cc2)cc1` (repeat unit), the glass transition temperature was 122.00 °C.

Turning to `*Oc1ccc(Oc2ccc(P(C)(=O)c3ccc(*)cc3)cc2)cc1` (repeat unit), the glass transition temperature was determined as 213.00 °C.

Turning to `*Oc1ccc2ccc(Oc3ccc(C(=O)Nc4ccc(Oc5ccc(C(C)(C)c6ccc(Oc7ccc(NC(=O)c8ccc(*)cc8)cc7)cc6)cc5)cc4)cc3)cc2c1` (repeat unit), the glass transition temperature turned out to be 143.00 °C.

For the molecule `*Oc1ccc2ccc(Oc3ccc(C(=O)Nc4ccc(Oc5ccc(C(C)(c6ccccc6)c6ccc(Oc7ccc(NC(=O)c8ccc(*)cc8)cc7)cc6)cc5)cc4)cc3)cc2c1` (repeat unit), the glass transition temperature came to 177.00 °C.

`*c1ccc(CCc2ccccc2N2C(=O)C(=O)N(c3ccc(Oc4ccc(N5C(=O)C(=O)N(*)C5=O)cc4)cc3)C2=O)cc1` (repeat unit): the glass transition temperature is 208.00 °C.

In the case of `*c1ccc(Oc2ccc(C(C)(C)c3ccc(Oc4ccc(N5C(=O)C6CCC(C7CCC8C(=O)N(*)C(=O)C8C7)CC6C5=O)cc4)cc3)cc2)cc1` (repeat unit), the glass transition temperature was 225.00 °C.

As for `*c1ccc(Oc2ccc(C(C)(C)c3ccc(Oc4ccc(N5C(=O)C6CCC7C(=O)N(*)C(=O)C7C6C5=O)cc4)cc3)cc2)cc1` (repeat unit), the glass transition temperature worked out at 263.50 °C.

For `*c1ccc(Oc2ccc(C3(c4ccc(Oc5ccc(-c6nnc(*)c7c(-c8ccccc8)c(-c8ccc9ccccc9c8)c(-c8ccc9ccccc9c8)c(-c8ccccc8)c67)cc5)cc4)c4ccccc4-c4ccccc43)cc2)cc1` (repeat unit), the glass transition temperature turned out to be 334.00 °C.

Consider `*c1ccc(Oc2ccc(C3(c4ccc(Oc5ccc(N6C(=O)c7ccc(Oc8ccc(C9(c%10ccc(Oc%11ccc%12c(c%11)C(=O)N(*)C%12=O)cc%10)CCC(c%10ccccc%10)CC9)cc8)cc7C6=O)cc5)cc4)CCC(C(C)(C)C)CC3)cc2)cc1` (repeat unit), for which the glass transition temperature is 243.00 °C.

`*c1ccc(Oc2ccc(N3C(=O)C(C)C(SCCOCCSC4C(=O)N(c5ccc(Oc6ccc(N7C(=O)CC(C)(SCCOCCSC8(C)CC(=O)N(*)C8=O)C7=O)cc6)cc5)C(=O)C4C)C3=O)cc2)cc1` (repeat unit) gave a glass transition temperature of 145.00 °C.

Turning to `*c1ccc(Oc2ccc(N3C(=O)c4c(c(-c5ccccc5)c(-c5ccc(-c6c(-c7ccccc7)c7c(c(-c8ccccc8)c6-c6ccccc6)C(=O)N(*)C7=O)cc5)c(-c5ccccc5)c4-c4ccccc4)C3=O)cc2)cc1` (repeat unit), the glass transition temperature stood at 413.00 °C.

Molecule `*c1ccc(Oc2ccc(N3C(=O)c4c(c(-c5ccccc5)c(-c5ccc(Oc6ccc(-c7c(-c8ccccc8)c8c(c(-c9ccccc9)c7-c7ccccc7)C(=O)N(*)C8=O)cc6)cc5)c(-c5ccccc5)c4-c4ccccc4)C3=O)cc2)cc1` (repeat unit) displayed a glass transition temperature of 360.00 °C.

Consider `*c1ccc(Oc2ccc(Oc3ccc(-c4ccc(Oc5ccc(Oc6ccc(C7(*)OC(=O)c8ccccc87)cc6)cc5)c5ccccc45)c4ccccc34)cc2)cc1` (repeat unit), for which the glass transition temperature was determined as 198.00 °C.

Turning to `*c1ccc(Oc2ccc(Oc3ccc(-c4nc(*)nc(-c5ccccc5)n4)cc3)cc2)cc1` (repeat unit), the glass transition temperature was 244.00 °C.

The molecule `*c1ccc(Oc2ccc(Oc3ccc(-c4nnc(*)c5c(-c6ccc(F)cc6)c(-c6ccc(F)cc6)c(-c6ccc(F)cc6)c(-c6ccc(F)cc6)c45)cc3)cc2)cc1` (repeat unit) came in with a glass transition temperature of 309.00 °C.

`*c1ccc(Oc2ccc(Oc3ccc(Oc4ccc(-c5nc(*)nc(-c6ccccc6)n5)cc4)cc3)cc2)cc1` (repeat unit): the glass transition temperature came out at 203.00 °C.

As for `*c1ccc(Oc2ccc(Oc3ccc(P(=O)(c4ccccc4)c4ccc(Oc5ccc(Oc6ccc(-c7nc8cc9sc(*)nc9cc8s7)cc6)cc5)cc4)cc3)cc2)cc1` (repeat unit), the glass transition temperature turned out to be 255.00 °C.

As for `*c1ccc(Oc2ccc(P(C)(=O)c3ccc(Oc4ccc(C5(*)OC(=O)c6ccccc65)cc4)cc3)cc2)cc1` (repeat unit), the glass transition temperature is 263.00 °C.

Take `*c1ccc2c(c1)C(=O)N(c1ccc(C(=O)Nc3ccc(Oc4ccc(C(C)(C)c5ccc(Oc6ccc(NC(=O)c7ccc(N8C(=O)c9ccc(C(*)(C(F)(F)F)C(F)(F)F)cc9C8=O)cc7)cc6)cc5)cc4)cc3)cc1)C2=O` (repeat unit): the glass transition temperature was 266.00 °C.

`*c1ccc2c(c1)C(=O)N(c1cccc(C(=O)Nc3ccc(Oc4ccc(C(C)(C)c5ccc(Oc6ccc(NC(=O)c7cccc(N8C(=O)c9ccc(C(*)(C(F)(F)F)C(F)(F)F)cc9C8=O)c7)cc6)cc5)cc4)cc3)c1)C2=O` (repeat unit) had a glass transition temperature of 259.00 °C.

`*c1cccc(C(=O)Nc2ccc(Oc3ccc(C(C)(C)c4ccc(Oc5ccc(NC(=O)c6cccc(N7C(=O)c8ccc(-c9ccc%10c(c9)C(=O)N(*)C%10=O)cc8C7=O)c6)cc5)cc4)cc3)cc2)c1` (repeat unit): the glass transition temperature was 257.00 °C.
